Data: patent US10485776B2, “Medicament for therapeutic treatment of neuropathic disease” (KEMPHYS LTD., priority 2013, dated 2019)
Values joined by “and” are separate entries in the source; they are usually repeats but may differ in a detail not shown here. Identical values can stand only once.

Experiments:
[1] = Serum pregabalin concentration after application to the back of an adult, LC/MS (Example 12); type: in vivo, human; settings: 150 mg in aqueous solution applied to the back
Procedure: An aqueous solution containing pregabalin (150 mg) was applied to the back of an adult. After the application, blood was collected, and the serum was deproteinized, and then reacted with dinitrobenzenesulfonyl chloride to derivatize pregabalin. Pregabalin was quantified by LC/MS. The pregabalin concentration reached 9 ng/ml 30 minutes after the administration, and this concentration was maintained thereafter over 3 hours or longer.

[2] = test system: neuropathic pain mouse (L5 and L6 nerve ligation); test: Suppression of allodynia pain in mouse nerve ligation model, von Frey filament; type: in vivo; settings: for pain threshold of nerve-ligated group vs medium solvent-applied group: hind leg immersed
Procedure: FIG. 1 is a graph showing results of measurement of analgesic effect obtained by applying an aqueous solution of pregabalin (2.5 mg/ml) to a neuropathic pain mouse. The asterisks (*) indicate the presence of a significant difference with respect to the distilled water-applied group.
FIG. 2 is a graph showing results of measurement of analgesic effect obtained by applying an aqueous solution of pregabalin (7.5 mg/ml) to a neuropathic pain mouse. The asterisks (*) indicate the presence of a significant difference with respect to the distilled water-applied group.
The nerves L5 and L6 of mice (n=6) were ligated with silk threads to prepare pain model. A sham group was prepared as a control (n=6). After 4 weeks, hind legs of the mice were immersed in a 2.5 mg/ml or 7.5 mg/ml aqueous solution of pregabalin (solution prepared by dissolving 75 mg of pregabalin in 10 ml or 30 ml of distilled water) 5 minutes before the measurement until the hair of whole right hind leg was wetted with the solution, and air-dried over 30 minutes after the application. In this state, pain threshold was measured by using a von Frey standard filament, and then pain threshold was measured in the same manner 60 minutes, 90 minutes, and 180 minutes thereafter.

[3] = test system: model leg (left) footpad of sciatic nerve-ligated rat; test: Rat pain test, Seltzer partial sciatic nerve ligation model, von Frey up-and-down method, model leg (left); type: in vivo
[4] = test system: normal leg (right) footpad of rat; test: Rat pain test, Seltzer model, von Frey up-and-down method, normal leg (right); type: in vivo
[5] = model site, 1 mg/site on footpad, individual animals No. 71-78
[6] = model site, 1 mg/site, average of 8 animals
[7] = normal site, 1 mg/site on footpad, individual animals No. 71-78
[8] = normal site, 1 mg/site, average of 8 animals

CC(C)C[C@H](CN)CC(=O)O [Pregabalin]
time the serum concentration was maintained ([1]; 9 ng/ml level): ≥ 3 h | concentration at 30 min ([1]; male, human, serum, topical, 30 minutes after the administration): 9 ng/mL | pain threshold of nerve-ligated group vs medium solvent-applied group ([2]; 2.5 mg/ml aqueous solution (low dose group), FIG. 1): statistically significant improvement | pain threshold of nerve-ligated group vs medium solvent-applied group ([2]; 7.5 mg/ml aqueous solution (high dose group), FIG. 2): statistically significant improvement | persistence of pain threshold improvement ([2]; both 2.5 and 7.5 mg/ml groups): maintained even after 3 hours | change of pain threshold values, pain model legs ([3]; 10.0 mg/mL in water with 0.1% Tween 80, 0.10 mL on footpad, after 1 hour): Sufficient increase | pain threshold value, 1 Hour after administration [3, 5]: 8.0 g and 2.0 g and 6.0 g (5×) and 4.0 g | pain threshold value, 3 Hour after administration [3, 5]: 6.0 g (2×) and 2.0 g (2×) and 4.0 g (4×) | pain threshold value, 6 Hour after administration [3, 5]: 4.0 g and 1.0 g (3×) and 2.0 g (4×) | pain threshold value, 1 Hour after administration, Average [3, 6]: 5.5 g | pain threshold value, 3 Hour after administration, Average [3, 6]: 4.0 g | pain threshold value, 6 Hour after administration, Average [3, 6]: 1.9 g | pain threshold value, before administration, Average ([3]; model site, average of 8 animals, baseline before 1 mg/site): 1.6 g | pain threshold value, before administration ([3]; model site, individual animals No. 71-78, baseline before 1 mg/site): 2.0 g (2×) and 1.4 g (6×) | change of pain threshold value, normal leg ([4]; 10.0 mg/mL in water with 0.1% Tween 80, 0.10 mL on footpad): Increase of the threshold value was also observed | pain threshold value, 1 Hour after administration [4, 7]: 10.0 g and 8.0 g and 15.0 g (2×) and 26.0 g (4×) | pain threshold value, 3 Hour after administration [4, 7]: 10.0 g (3×) and 26.0 g (2×) and 15.0 g (3×) | pain threshold value, 6 Hour after administration [4, 7]: 10.0 g (5×) and 8.0 g and 15.0 g (2×) | pain threshold value, 1 Hour after administration, Average [4, 8]: 19.0 g | pain threshold value, 3 Hour after administration, Average [4, 8]: 15.9 g | pain threshold value, 6 Hour after administration, Average [4, 8]: 11.0 g | pain threshold value, before administration, Average ([4]; normal site, average of 8 animals, baseline before 1 mg/site): 10.8 g | pain threshold value, before administration ([4]; normal site, individual animals No. 71-78, baseline before 1 mg/site): 8.0 g (2×) and 10.0 g (4×) and 15.0 g (2×)
